Measurements from patent publication EP0986381B1, “USE OF DITERPENES LIKE HYPOESTOXIDES FOR THE MANUFACTURE OF A MEDICAMENT FOR IMMUNOSUPPRESSION, ANTICANCER AND ANTIVIRAL TREATMENT” (Immune Modulation, Inc., priority 1997, dated 1998).

Assays:
[1] = tested on: human two-way mixed lymphocyte reaction (PBMCs from two individuals); assay: Two-way mixed leukocyte reaction (MLR), 3H-thymidine incorporation; assay type: cell-based
Protocol: The MLR is an assay recognized by those skilled in the art as an in vitro predictor of in vivo immunosuppressant activity. The MLR is an in vitro model of T-cell recognition of foreign major histocompatibility complex (MHC) gene products and was used as a predictive test of cell-mediated graft rejection (Abbas, A.K., et al., eds, 1994, 2nd ed. Cellular and Molecular Immunology, W.B. Saunders Co., USA). Graft rejection is carried out by T cells that recognize MHC molecules and destroy the graft. This process can be studied in vivo, but in-depth analysis, especially in humans, required the development of tests such as the MLR as an in vitro correlate of graft rejection. (Janeway, Chas. and Travers, Paul, Immunobiology, 2nd Ed., Garland Publishing, Inc, New York (1996)). It is well known in the art that the MLR is induced by co-culturing mononuclear leukocytes from one individual with mononuclear leukocytes derived from another individual. If there are differences in the alleles of the MHC genes between the two individuals, a large proportion of the mononuclear cells will proliferate over a period of 4-7 days, and is referred to as allogeneic MLR. The level of proliferative response is measured by incorporation of ^3H-thymidine into DNA during cell replication. Because the cells from each donor react and proliferate against the other, the resultant response is known as a "two-way MLR". JO-4 was tested in the MLR for its ability to "immunosuppress".
Mononuclear cells (at 2 x 10^6/ml) of each donor were first mixed thoroughly together in a 50 ml tube at a 1:1 ratio with volume. […] Cells were harvested onto glass fiber filters (Packard, Downers Grove, IL) with a 96-well automatic cell harvester (TOMTEC, Hamden, CT) and were counted directly on a Matrix 9600 beta counter (Packard).
Data were expressed as percent inhibition (% Inhibition) according to the following formula: % Inhibition = 100 -((Counts per minute (CPM) for wells with drug x 100))/(CPM for wells without drug) [formula] […]

Mouse spleen cells = assay: LPS-induced murine lymphocyte proliferation in vitro; assay type: cell-based; settings: all concentrations tested (1.5 µg/mL-50 µg/mL); LPS 5 µg/ml, 48 hours
Protocol: LPS is a B-cell mitogen in mice and it is also known to induce pro-inflammatory cytokines such as TNF-α, IL-6 and IL-1β in both murine and human mononuclear cells (Cunningham, A.J., ed; Understanding Immunology 1978;Academic Press, Inc., New York, USA). Murine lymphocytes were stimulated with LPS in vitro in the absence or presence of varying concentrations of JO-4 (1.5, 2.5, 5.0, 10.0, and 50.0 µg/mL).

[2] = Colorimetric MTT cytotoxicity assay, CV-1 cells; assay type: cell-based; settings: african green monkey, read-out: concentration giving cytotoxicity of greater than 50%
Protocol: Normal African green monkey kidney cells (CV-1): CV-1 cells from the Hybriwix™ Probe Systems: Herpes Antiviral Susceptibility Test kit (Diagnostic Hybrids, Inc., Athens, OH) were used for toxicity testing of JO-4A by MTT assay. Colorimetric MTT assay: Cytotoxic effects of drugs were determined in vitro by a colorimetric assay (Mosmann, T., J. Immunol. Methods, 65: 55-63, 1983). Briefly, 1000 cells per well (100 µl) in a 96-well flat-bottom plate were cultured either with the culture medium alone or with various concentrations of drug at 37°C, in a 5% CO2-95% air humidified incubator for 72 hours. At the end of the culture, 10 µl of 5 mg/ml sterile solution of 3-(4,5-Dimethylthiazol-2yl)-2,5-diphenyltetrazolium bromide (MTT) (Sigma Chemicals, Saint Louis, MO) in PBS was added per well and the incubation was resumed for an additional 4 hours. Acid-isopropanol (100 µl of 0.04 N HCl in isopropanol) was added to all wells and kept at room temperature for 30 minutes. Mixing with a multichannel pipetter dissolved the dark blue crystals and the absorbance was measured at 545-650 nm using an ELISA plate reader.

HSV-2 = assay: In vitro HSV-2 replication assay, Hybriwix Probe Systems; assay type: cell-based, Herpes simplex virus
Protocol: The antiviral activity of the drug was determined using the Hybriwix™ Probe Systems (Herpes Antiviral Susceptibility Test kit: Diagnostic Hybrids, Inc., Athens, OH). Briefly, either HSV-1 or HSV-2 isolates (ATTC, Rockville, MD) were pre-adsorbed at 37°C and 5% CO2 in a humidified incubator for 60 minutes on African green monkey Kidney cells in a 24-well flat-bottom plate. Following pre-adsorption, the viral inoculum was removed and the growth medium containing various concentrations of appropriate drug was placed in appropriate wells. The culture was continued for 48 hours for the amplification of the virus. Quantification of the HSV DNA present in each well was determined by the nucleic acid hybridization method. The cells and/or virus were lysed with DNA wicking agent and the single-stranded DNA was immobilized on a Hybriwix™ filter by a vertical capillary absorption of the wicking agent/DNA solution. The amount of HSV target DNA from each well was determined using radioactive (I^125)-HSV DNA probe containing genetic sequences, which are homologous to HSV-1 or HSV-2 sequences. The amount of radioactivity present on the Hybriwix™ was dependent upon the amount of HSV DNA present after culture, and was determined in a gamma counter (Packard Instrument Co., Meriden, CT).

| Compound | effect on two-way MLR ([1]; JO-4 at 1.0, 0.5 or 0.25 µg/ml, 5 days) | inhibition of LPS-induced proliferation of murine lymphocytes (Mouse spleen cells) | CC50 at 72 h [2] | inhibition at 3.125 µM (HSV-2; Human alphaherpesvirus 2, 48 h, 3.125 µM, two days, African green monkey kidney cells) | inhibition at 12.5 µM (HSV-2; Human alphaherpesvirus 2, 48 h, 12.5 µM, two days, African green monkey kidney cells) | IC50 (HSV-2; Human alphaherpesvirus 2, 48 h, two days, African green monkey kidney cells, read-out: IC50 dose on HSV-1 inhibition (paragraph on HSV-2 replication)) | IC50 ([1]; Homo sapiens, Leukocyte, 120 h, 5 days) | inhibition at 10 µM ([1]; Homo sapiens, Leukocyte, at 10.0 µM) | replication and growth of HSV-2 (HSV-2; African Green Monkey kidney cells) |
| --- | --- | --- | --- | --- | --- | --- | --- | --- | --- |
| C=C1C(=O)C[C@H]2C[C@@H]3O[C@@]3(C)CC[C@@H]3O[C@@]3(C)C[C@@H](OC(C)=O)[C@H]1C2(C)C [JO-4, hypoestoxide] | inhibited | more than 50% | > 50 µM | 58% | 65% | < 3.12 µM |  |  |  |
| C=C1C(=O)CC2CC3OC3(C)CCC3OC3(C)CC(O)C1C2(C)C (stereo not shown) [JO-4A] |  |  | ~25 µM |  |  |  | 5 to 10 µM | 64% | inhibited |
